The text below walks through data of article PMC8454699, “Structure and function of aerotolerant, multiple-turnover THI4 thiazole synthases” (Biochemical Journal, 2021).

Structures are written as SMILES.

For the assay, the target named is T1, Thermovibrio ammonificans THI4 (TaTHI4) (Thermovibrio ammonificans, UniProt E8T346).
T1 construct: N-terminal His6 tag (pBAD24, recoded gene), E. coli BL21(DE3); homooctamer, four monomers per asymmetric unit; anaerobically reconstituted with Fe(II), NAD+ and glycine
Briefly: X-ray crystallography, […] A. It is filed as binding. The settings on record: reaction intermediate formed from NAD+ and glycine; Fe(II)-reconstituted, anaerobic; pH 7.5, 22 °C; active site, pincer-type ligand of Fe(II).

Take `CC(N=CC(=O)O)C(=O)C(O)COP(=O)(O)OP(=O)(O)OC[C@H]1O[C@@H](n2cnc3c(N)ncnc32)[C@H](O)[C@@H]1O` (stereo partly shown) [glycine imine intermediate]: the “X-ray crystallography, 2.3 A” value is “Clear density for the TaTHI4 treated with NAD and glycine shows the expected glycine imine”.
